Measured values taken from ChEMBL document CHEMBL1130607, “Reversal of multidrug resistance (MDR) by aspidofractinine-type indole alkaloids” (Bioorg Med Chem Lett, 1998).
In brackets after ≈: the same amount, converted by molar mass.

Test system: Epidermoid carcinoma cell line
Assay: Compound was evaluated for cytotoxicity against vincristine- resistant (KB/VJ300) human oral epidermoid carcinoma cell line
Type: functional, cell-based
Conditions: not given

Row | SMILES | IC50
1 | COC(=O)N1c2c(OC)cccc2[C@@]23CCN4CC=C[C@]5(CC[C@]12[C@](O)(C(=O)OC)[C@@H]5O)[C@H]43 [KOPSINGINE] | > 25 µg/mL
2 | COC(=O)[C@@H]1CC23CCCN4CC[C@@]5(c6cccc(OC)c6N(C(=O)OC)C15CC2)[C@@H]43 (stereo partly specified) | 21 µg/mL (≈ 49.2 µM)
3 | COC(=O)[C@@H]1CC23CCCN4CC[C@@]5(c6ccccc6NC15CC2)[C@@H]43 (stereo partly specified) [KOPSININE] | 25 µg/mL (≈ 73.9 µM)
4 | COC(=O)N1c2c(OC)cccc2[C@@]23CCN4CCCC5(CCC12[C@](O)(C(=O)OC)C5)[C@H]43 (stereo partly specified) [KOPSILONGINE] | 15.4 µg/mL (≈ 34.8 µM)

Test system: Epidermoid carcinoma cell line
Assay: Compound was evaluated for cytotoxicity against vincristine- resistant (KB/VJ300) human oral epidermoid carcinoma cell line; poor activity or moderate activity
Type: functional, cell-based
Conditions: not given

Row | SMILES | IC50
5 | CCO[C@H]1C[C@@H]2O[C@@H]3[C@]14CC[C@@]1(N(C(=O)OC)c5c(OC)cccc5[C@@]15CCN2[C@@H]45)[C@]3(O)C(=O)OC [KOPSIDINE B] | poor activity or moderate activity
6 | COC(=O)N1c2c(OC)cccc2[C@@]23[C@H]4C(=O)[C@@]5(O)[C@H]6O[C@H]4N4CC[C@H](O)[C@]6(CC[C@]125)[C@H]43 | poor activity or moderate activity
7 | COC(=O)N1c2c(OC)cccc2[C@@]23CCN4CC[C@H](O)[C@]5(CC[C@]12[C@](O)(C(=O)OC)[C@@H]5O)[C@H]43 [KOPSINGANOL] | poor activity or moderate activity
8 | COC(=O)N1c2c(ccc3c2OCO3)[C@]23[C@H]4OC(=O)[C@@]5(O)C[C@@]6(CCCN(C4=O)[C@@]62O)CC[C@]135 [paucidactine A] | poor activity or moderate activity
9 | COC(=O)N1c2c(OC)cccc2[C@@]23CCN4C[C@H]5O[C@H]5[C@]5(CC[C@]12[C@](O)(C(=O)OC)[C@@H]5O)[C@H]43 | poor activity or moderate activity
10 | COC(=O)N1c2ccccc2[C@@]23[C@@H]4CN5CCC[C@]6(CC[C@]12[C@@H](O)[C@@H]6C4=O)[C@H]53 [FRUTICOSAMINE] | poor activity or moderate activity
11 | COC(=O)N1c2c(ccc3c2OCO3)[C@]23CC(=O)C[C@@]4(CCCN(C=O)[C@@H]42)CCC13C(=O)OC (stereo partly specified) [DANUPHYLLINE] | poor activity or moderate activity
12 | COC(=O)N1c2c(ccc3c2OCO3)[C@@]23CC(=O)N(CCCC4=CC[C@]12[C@](O)(C(=O)OC)C4)C3=O [PAUCIFLORINE A] | poor activity or moderate activity

Test system: Epidermoid carcinoma cell line
Assay: Compound was evaluated for cytotoxicity against vincristine- sensitive (KB/S) human oral epidermoid carcinoma cell line at 7 ug/mL
Type: functional
Conditions: not given

Row | SMILES | Cell growth
13 | COC(=O)C1=CC23CCCN4CC[C@@]5(c6cccc(OC)c6N(C(=O)OC)C15CC2)[C@@H]43 (stereo partly specified) | <50%

Test system: Epidermoid carcinoma cell line
Assay: Compound was evaluated for cytotoxicity against vincristine-resistant (KB/VJ300) human oral epidermoid carcinoma cell line
Type: functional, cell-based
Conditions: not given

Row | SMILES | IC50
14 | COC(=O)N1c2c(ccc3c2OCO3)[C@@]23CCN4CCCC5(CCC12[C@](O)(C(=O)OC)C5)[C@H]43 (stereo partly specified) [KOPSAMINE] | 5.6 µg/mL (≈ 12.3 µM)
15 | COC(=O)N1c2ccccc2[C@@]23CCN4CCCC5(CCC12[C@](O)(C(=O)OC)C5)[C@H]43 (stereo partly specified) [KOPSIFLORINE] | 2.3 µg/mL (≈ 5.58 µM)
16 | COC(=O)N1c2c(ccc(OC)c2OC)[C@@]23CCN4CCCC5(CCC12[C@](O)(C(=O)OC)C5)[C@H]43 (stereo partly specified) | 1.6 µg/mL (≈ 3.39 µM)
17 | COC(=O)N1c2c(ccc3c2OCO3)[C@@]23CCN4CCCC5(CCC12[C@](O)(C(=O)OC)C5)[C@]43C#N (stereo partly specified) [LAHADININE A] | 2.5 µg/mL (≈ 5.19 µM)
18 | COC(=O)C1=CC23CCCN4CC[C@@]5(c6ccc7c(c6N(C(=O)OC)C15CC2)OCO7)[C@@H]43 (stereo partly specified) | 4.4 µg/mL (≈ 10 µM)
19 | COC(=O)[C@@H]1CC23CCCN4CC[C@@]5(c6ccccc6N(C(=O)OC)C15CC2)[C@@H]43 (stereo partly specified) [PLEIOCARPINE] | 3.1 µg/mL (≈ 7.82 µM)

Test system: Epidermoid carcinoma cell line
Assay: Compound was evaluated for cytotoxicity against vincristine- resistant (KB/VJ300) human oral epidermoid carcinoma cell line; P = poor activity or moderate activity
Type: functional, cell-based
Conditions: Homo sapiens, Epidermoid carcinoma cell line; read-out: IC50

Row | SMILES | IC50
20 | COC(=O)N1c2c(ccc(O)c2OC)[C@@]23CCN4CCCC5(CCC12[C@](O)(C(=O)OC)C5)[C@H]43 (stereo partly specified) | > 25 µg/mL

Same assay, conditions: epidermoid carcinoma cell line

Row | SMILES | IC50
21 | COC(=O)N1c2c(OC)cccc2[C@@]23CCN4CCC[C@]5(CC[C@]12[C@](O)(C(=O)OC)[C@@H]5O)[C@H]43 [DIHYDROKOPSINGINE] | Poor or moderate activity
